pIC50: −log10 of the molar value. Several values for one entry are separate records, joined by “and”; a condition that tells them apart may be missing. Equal entries are not always repeated. Where two headings read alike, the source gives them in different places.
What was measured:
[1] = tested on: phospho CHK1(S345), phospho RPA32(S4/S8), phospho TH2AX in SCLC cells; assay: Western blot of replication stress and DNA damage markers (Example 2); type: cell-based, human; conditions: 0.9 nM, 24 and 48h, versus DMSO, all four subtypes
Method: (§1) Protein lysate were isolated from SCLC cells treated with 0.9 nM lurbinectedin or DMSO for 24 and 48h. Nitrocellulose membranes were incubated with primary antibodies (1:1000) for Human SLFN11 (Santa Cruz Biotechnology), phospho-(S345) CHK1 Cell Signaling Technologies (CST), phospho-(S4/S8) RPA32 (Bethyl laboratories), phospho-(S139) TH2AX (CST), cleaved caspase-3 (CST), phospho-(S366) STING (SAB Biotech), cGAS (CST), PD-L1(CST), GAPDH (Santa Cruz Biotechnology) and Vinculin (Sigma-Aldrich) overnight. Secondary anti-goat, anti-mouse (Santa Cruz Biotechnology) and anti-rabbit HRP linked antibodies (CST) were used and detected using the Chemidoc imaging system, image captured with Image Studio Version 3.1 software (BioRad).
Based on its mechanism of action, the inventors predicted that lurbinectedin would lead to increased replication stress and DNA damage in SCLC models. To test this, SCLC cells from all four subtypes were treated with lurbinectedin (0.9 nM/L) for 24 and 48h and markers of DNA damage and replication stress were assayed by Western blot.

SLFN11 = assay: Western blot of SLFN11 expression after treatment; type: cell-based, human
Method: as §1

H865 xenografts = assay: Flank xenograft efficacy study, SLFN11 low; type: in vivo, mouse; conditions: H865, lower SLFN11; 0.1 mg/kg i.v. once per week
Method: (§2) For the […] mouse model, 6-week-old female athymic nude mice (Envigo) were used. Animals were maintained in accordance with the Institutional Animal Care and Use Committee (IACUC) of The University of Texas MD Anderson Cancer Center and the NIH Guidelines for the Care and Use of Laboratory Animals. Experiments were performed under protocol: 00001191-RN03.
(§3) High SLFN11 protein expressing SCLC cell line DMS79 and low SLFN11 protein expressing cell line H865 were used for generation of xenografts. For subcutaneous injections, 1×10^6 SCLC cells were injected into one flank of each mouse with PBS: Matrigel (1:1, BD Biosciences). At an average tumor volume of 100 mm^3, mice were randomly allocated to three groups (n=5). Mice received either Vehicle (0.9% saline), lurbinectedin (0.1 mg/kg i.v. once per week), or cisplatin (6 mg/kg i.p. once per week). Tumor volumes were measured every other day using digital calipers.
(§4) Differences in IC50 values between subgroups were tested using ANOVA. Differences between SLFN11 high and low groups, defined using the bi-modality index were tested using an un-paired t-test. Spearman rank correlation was used to assess the association between IC50 values and RPPA protein markers, The Benjamini & Hochberg (1995) method was used to control false discovery rate (FDR). […]

metastatic SCLC = conditions: 37 of 102 patients; 95% CI 26.2-45.2; cited from earlier work
DMS79 and H209 cells = assay: Proliferation assay after siRNA knockdown of SLFN11; type: cell-based, human; conditions: DMS79 and H209, versus parental and scrambled siRNA controls
Method: For SLFN11 gene silencing, pooled small interfering RNAs (siRNAs) targeting SLFN11 (L-016764-01-0005) or its corresponding scramble control (D-001810-10-05; GE Dharmacon) were transfected into DMS79 and H209 cells for 72 hours using Lipofectamine 2000 (Invitrogen) according to the manufacturer's protocol. The cells were then plated for 96h proliferation assays. Knock down efficiency was validated by Western blotting.

human SCLC cell lines = assay: Cell proliferation assay (Cell Titer Glo), panel of 21 human SCLC cell lines; type: cell-based; conditions: for pIC50: 21 human SCLC cell lines
Method: Human SCLC cell lines (21 cell lines) were purchased from ATCC. Cell lines were tested and authenticated by short tandem repeat profiling (DNA fingerprinting) and not cultured for greater than 6-months and were routinely tested for Mycoplasma contamination. Cell lines were cultured in either RPMI or HITES medium with 10% fetal bovine serum and 1% pen-strep, at 37° C. in a humidified chamber with 5% C02.
Cells were seeded in 96-well plates at 2,000 cells per well in triplicate for each cell line. After 24 hours, the cells in each well were treated with a lurbinectedin or with vehicle control. Four days later, proliferation was assayed by Cell Titer Glo (Promega, Fitchburg, WI). For single drug treatments, median inhibitory concentration (IC50) values were estimated by the Drexplorer software using date from duplicate experiments (14). For drug combinations, the area under the curve (AUC) of the observed (or experimental) effect of the combination was compared to the predicted additive effect. Data was subsequently presented as a ratio of the experimental effect relative to the predicted additive effect based on the Bliss Independence model, as previously reported (15). Using 10% above or below the predicted additive effect as a cut-off, the inventors then assigned the following groups: Observed/predicted<−0.1=greater than additive; […]; Observed/predicted <0.1 and >−0.1=additive.
Differences in IC50 values between subgroups were tested using ANOVA. Differences between SLFN11 high and low groups, defined using the bi-modality index (16), were tested using an un-paired t-test. Spearman rank correlation was used to assess the association between IC50 values and RPPA protein markers, The Benjamini & Hochberg (1995) method (17) was used to control false discovery rate (FDR). RPPA generates a quantitative measurement of expression of over 200 total and phosphorylated proteins, these values can be correlated to other variables such as IC50 values, and be compared between biomarker defined groups using standard statistical techniques. All analyses were performed using the R software.

DMS79 xenografts = assay: Flank xenograft efficacy study, SLFN11 high; type: in vivo, mouse; conditions: 0.1 mg/kg i.v. once per week
Method: as §2, §3, §4

[2] = tested on: cGAS, phospho STING, PD-L1 in SCLC cells; assay: Western blot of cGAS-STING pathway and PD-L1; type: cell-based, human; conditions: 24 and 48h
Method: as §1

[3] = tested on: pChK1, pRPA32, TH2AX in SCLC cell lines; assay: Western blot of DNA damage markers (Example 1); type: cell-based; conditions: 1 nM for 24 or 48 hours, sensitive cell lines
Method: (§5) A 12 SCLC cell line panel representing SCLC-A, N, P and I subtypes, developed at MD Anderson Cancer Center, was screened against lurbinectedin in 96 hr proliferation assays (FIG. 2). Western Blotting: Three SCLC cell lines were treated with 1 nM of lurbinectedin for 24 and 48h and then subjected for protein isolation and Western blotting for pChK1, pRPA32, TH2AX.

[4] = clinical testing; cited from earlier work
SCLC cell lines = assay: 96 hr proliferation assay, SCLC cell line panel (Example 1); type: cell-based, human and mouse; conditions: for pIC50: 12 human-derived and 3 mouse model-derived SCLC cell lines
Method: In this preclinical study, the inventors investigated the therapeutic efficacy of lurbinectedin in large number of profiled SCLC cell lines representing the four SCLC subtypes (A, N, P and I) to identify candidate markers of drug sensitivity and resistance.
as §5

## COc1ccc2[nH]c3c(c2c1)CCN[C@]31CS[C@@H]2c3c(OC(C)=O)c(C)c4c(c3[C@H](COC1=O)N1[C@@H]2[C@H]2c3c(cc(C)c(OC)c3O)C[C@@H]([C@@H]1O)N2C)OCO4 [lurbinectedin, Lurbinectedin]
[1]
  markers of replication stress phospho CHK1(S345) and phospho RPA32(S4/S8): increases in markers of replication stress
SLFN11; DMS-79
  change in SLFN11 levels: minimal decrease
SLFN11; H1048
  change in SLFN11 levels: undetectable level
H865 xenografts
  sensitivity of xenografts: significantly less sensitive
Metastatic SCLC
  overall response by investigator assessment: 35.2%
DMS79 and H209 cells
  sensitivity after SLFN11 knockdown: reduced sensitivity
Human SCLC cell lines; read-out: IC50 range
  pIC50: 8.74 to 10.22
Human SCLC cell lines; read-out: median IC50
  pIC50: 9.34
Human SCLC cell lines; SCLC-A, SCLC-N, SCLC-P, SCLC-I
  difference in in vitro activity between subtypes: no significant difference
Human SCLC cell lines; bimodal separation of SLFN11 by RPPA
  fold change (FC) of IC50 between SLFN11 high and low cell lines: 3.26 and 3.2
DMS79 xenografts
  tumor growth versus vehicle: significantly reduced tumor growth
[2]
  phospho STING and PD-L1: only observed in cell lines from the SCLC-P and SCLC-I subtypes
[2]; versus DMSO, all cell lines tested
  protein levels of cGAS: induced an increase
[3]
  markers of DNA damage (TH2AX, ChK1, RPA32): increased markers of DNA damage
[4]
  peak plasma concentration: 148.2-153.8 ng/mL and 188.8-196.0 nM
SCLC cell lines; read-out: IC50 range
  pIC50: 8.74 to 10.10
SCLC cell lines; read-out: median IC50
  pIC50: 9.28
SCLC cell lines; p=0.0035 by t-test
  IC50 of SLFN11-high versus SLFN11-low SCLC cells: lower IC50 than SLFN11-low cells
SCLC cell lines; subtypes A, N, P and I
  subtype specific difference in sensitivity: no subtype specific difference
